Laboratory results published in PubChem BioAssay (NCI).
“And” between values parts separate entries of the source, which are not always exact repeats. Identical values can stand only once.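 Step 1: Grow cells in 96-well plates. Step 2: Expose to compound for 48 hours at 5 concentrations. Step 3: Interpolate endpoints linearly; if unreached, use highest concentration. Abbreviation: GI50, concentration required for 50% inhibition of growth. Definition used: TGI = concentration required for complete inhibition of growth.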

Columns and labels:
Test in all cases: DTP human tumour cell line panel, 48 h
[1] = test system: TK-10 renal
[2] = test system: IGROV1 ovarian
[3] = test system: SNB-75 CNS
[4] = test system: SK-OV-3 ovarian
[5] = test system: A498 renal
[6] = test system: EKVX NSCLC
[7] = test system: HT29 colon
[8] = test system: RXF 393 renal
[9] = test system: NCI/ADR-RES ovarian
[10] = test system: SW-620 colon

COC(=O)c1cncc(/C=C/c2c(C)cc(O)cc2C)c1
GI50 [1]: > 25 µM | TGI [1]: > 25 µM | GI50 [2]: > 19.8 µM | TGI [2]: > 25 µM | GI50 [3]: > 9.93 µM | TGI [3]: > 18.8 µM | GI50 [4]: 8.01 µM | TGI [4]: 24.8 µM | GI50 [5]: 11 µM | TGI [5]: > 25 µM | GI50 [6]: > 17.3 µM | TGI [6]: > 25 µM | GI50 [7]: > 15.4 µM | TGI [7]: > 25 µM | GI50 [8]: 5.97 µM | TGI [8]: 16.7 µM | GI50 [9]: 7.3 µM | TGI [9]: > 25 µM | GI50 [10]: 8.63 µM | TGI [10]: > 25 µM

O=C(/C=C/c1cccc(O)c1)c1cccc(-n2cc(-c3ccccc3)[nH]c2=O)c1
GI50 [1]: 2.43 µM | TGI [1]: 6.89 µM | GI50 [2]: 3.24 µM | TGI [2]: 13.2 µM | GI50 [3]: 5.7 µM | TGI [3]: 18.2 µM | GI50 [4]: 12.3 µM | TGI [4]: 25 µM | GI50 [5]: 12.3 µM | TGI [5]: 24.9 µM | GI50 [6]: 7.18 µM | TGI [6]: 23 µM | GI50 [7]: 2.58 µM | TGI [7]: > 20.6 µM | GI50 [8]: 1.83 µM | TGI [8]: 3.51 µM | GI50 [9]: 3.94 µM | TGI [9]: 15.3 µM | GI50 [10]: 2.13 µM | TGI [10]: 4.74 µM

COC(=O)CCCCC(=O)c1c(C)[nH]c(/C=C2\N=C(c3ccc[nH]3)C=C2OC)c1C
GI50 [1]: 2.06 µM | TGI [1]: 6.38 µM | GI50 [2]: 1.22 µM | TGI [2]: 2.57 µM | GI50 [3]: 0.851 µM | TGI [3]: 2.24 µM | GI50 [4]: 2.25 µM | TGI [4]: 4.4 µM | GI50 [5]: 2.49 µM | TGI [5]: 6.39 µM | GI50 [6]: 1.14 µM | TGI [6]: 2.61 µM | GI50 [7]: 0.198 µM | TGI [7]: 1.41 µM | GI50 [8]: 0.524 µM | TGI [8]: 2 µM | GI50 [9]: 0.504 µM | TGI [9]: 1.91 µM | GI50 [10]: 0.395 µM | TGI [10]: 1.54 µM

Cc1cc(N=Nc2ccccc2C)ccc1N
GI50 [1]: 15.5 µM | TGI [1]: 49.3 µM and 72 µM | GI50 [2]: 5.1 µM | TGI [2]: 48.3 µM and 20 µM | GI50 [3]: 4.1 µM | TGI [3]: 28.1 µM and 31.9 µM | GI50 [4]: 22.2 µM | TGI [4]: 67 µM and 66.9 µM | GI50 [5]: 4.38 µM | TGI [5]: 44.3 µM and 23.8 µM | GI50 [6]: 11.7 µM | TGI [6]: 45.4 µM and 68 µM | TGI [7]: 33.3 µM and 38.2 µM | GI50 [8]: 15.1 µM | TGI [8]: 22.9 µM and 33.7 µM | GI50 [9]: 13.7 µM | TGI [9]: 25 µM and 43.2 µM | GI50 [10]: 14.8 µM | TGI [10]: 48.5 µM and 30.8 µM

COC1C(N)C(OC2C(Oc3cccc4c(O)c5c(=O)oc6ccc(C)c7c(=O)oc(c34)c5c67)OC(C)C(O)C2(C)O)OC(C)C1O (configuration not stated)
TGI [1]: 1.27 µM | TGI [2]: 0.132 µM | TGI [3]: 0.356 µM | TGI [5]: 0.155 µM | TGI [6]: 1.03 µM | TGI [7]: 0.436 µM | TGI [8]: 0.138 µM | TGI [9]: 12.1 µM | TGI [10]: 1.61 µM

C[N+](C)(C)CC1CCCC1=O (configuration not stated)
TGI [1]: 6.76 µM | TGI [2]: 32.3 µM | TGI [3]: 7.98 µM | TGI [4]: 30.4 µM | TGI [5]: 17.7 µM | TGI [6]: 4.62 µM | TGI [7]: 3.34 µM | TGI [8]: 5.3 µM | TGI [9]: 4.05 µM | TGI [10]: 1.07 µM

C#CCNC(=O)[C@H](CC)[C@H]1CC[C@H](C)[C@H]([C@@H](C)[C@H](O)[C@H](C)C(=O)[C@H](CC)C2O[C@]3(C=CC(=O)[C@]4(CC[C@@](C)([C@H]5CC[C@](O)(CC)[C@H](C)O5)O4)O3)[C@H](C)C[C@@H]2C)O1 (some centres not stated)
GI50 [1]: 2.35 µM | TGI [1]: 7.74 µM | GI50 [2]: 2.03 µM | TGI [2]: 7.92 µM | GI50 [3]: 1.39 µM | TGI [3]: 3.36 µM | GI50 [4]: 3.42 µM | TGI [4]: > 100 µM | GI50 [5]: 2.19 µM | TGI [5]: 6.07 µM | GI50 [6]: 2.59 µM | TGI [6]: > 100 µM | GI50 [7]: 2.26 µM | TGI [7]: 5.46 µM | GI50 [8]: 2.48 µM | TGI [8]: 7.63 µM | GI50 [9]: 2.26 µM | TGI [9]: 7.72 µM | GI50 [10]: 3.12 µM | TGI [10]: > 100 µM

CC(=O)NCc1cccc(C#Cc2cncnc2Nc2ccc(OCc3cccc(F)c3)c(Cl)c2)c1
GI50 [1]: 1.97 µM | TGI [1]: > 20.2 µM | GI50 [2]: 5.51 µM | TGI [2]: > 25 µM | GI50 [3]: > 21 µM | TGI [3]: > 25 µM | GI50 [4]: > 12.9 µM | TGI [4]: > 25 µM | GI50 [5]: 3.52 µM | TGI [5]: 24.8 µM | GI50 [6]: 1.46 µM | TGI [6]: > 14.8 µM | GI50 [7]: 9.19 µM | TGI [7]: > 25 µM | GI50 [8]: 13 µM | TGI [8]: > 25 µM | GI50 [9]: 7.76 µM | TGI [9]: > 25 µM | GI50 [10]: 18.3 µM | TGI [10]: > 25 µM

Oc1c(I)cc(I)c2cccnc12
GI50 [1]: 1.68 µM | TGI [1]: 20.2 µM | GI50 [2]: 4.24 µM | TGI [2]: 30.8 µM | GI50 [3]: 15.3 µM | TGI [3]: > 100 µM | GI50 [4]: 5.17 µM | TGI [4]: 29.2 µM | GI50 [5]: 12.2 µM | TGI [5]: 58 µM | GI50 [6]: 3.38 µM | TGI [6]: 24.2 µM | GI50 [7]: 8.91 µM | TGI [7]: > 100 µM | GI50 [8]: 11.4 µM | TGI [8]: 29.8 µM | GI50 [9]: 2.48 µM | TGI [9]: 8.84 µM | GI50 [10]: 3.74 µM | TGI [10]: > 100 µM

Oc1cccc2ccc(N/N=C/c3cc(CN4CCOCC4)c(O)c4ncccc34)nc12
GI50 [1]: 0.0497 µM | TGI [1]: 13.5 µM | GI50 [2]: 0.066 µM | TGI [2]: 4.94 µM | GI50 [3]: 0.0253 µM | TGI [3]: 2 µM | GI50 [4]: 0.0272 µM | TGI [4]: 0.368 µM | GI50 [5]: 0.376 µM | TGI [5]: 4.06 µM | GI50 [6]: 0.0962 µM | TGI [6]: 11.2 µM | GI50 [7]: 0.324 µM | TGI [7]: 5.92 µM | GI50 [8]: 0.048 µM | TGI [8]: 1.66 µM | GI50 [9]: 0.0233 µM | TGI [9]: 1.63 µM | TGI [10]: 2.41 µM

O=C(O)CCC(=O)c1ccc2sc3ccccc3c2c1
TGI [1]: > 100 µM | TGI [2]: > 100 µM | TGI [3]: > 100 µM | TGI [4]: > 100 µM | TGI [5]: > 100 µM | TGI [6]: > 100 µM | TGI [7]: > 100 µM | TGI [8]: > 100 µM | TGI [9]: > 100 µM | TGI [10]: > 100 µM

COc1cc(/C=C/C(=O)c2cccc(-n3cc(-c4ccc(Cl)cc4)[nH]c3=O)c2)cc(OC)c1OC
GI50 [1]: 6.46 µM | TGI [1]: 71.5 µM | GI50 [2]: 4.68 µM | TGI [2]: 19 µM | GI50 [3]: 20.5 µM | TGI [3]: > 100 µM | GI50 [4]: 31.4 µM | TGI [4]: > 100 µM | GI50 [5]: 30.2 µM | TGI [5]: > 100 µM | GI50 [6]: 23.9 µM | TGI [6]: > 100 µM | GI50 [7]: 2 µM | TGI [7]: 3.71 µM | GI50 [8]: 3.22 µM | TGI [8]: 7.7 µM | GI50 [9]: 2.36 µM | TGI [9]: 7.3 µM | GI50 [10]: 1.75 µM | TGI [10]: 3.17 µM

O=C1OC(C(O)CO)C(O)=C1O (configuration not stated)
GI50 [1]: 9040 µM and > 4840 µM | TGI [1]: > 10000 µM | GI50 [2]: 2040 µM and > 2490 µM | TGI [2]: 4140 µM and > 4350 µM | GI50 [3]: 2460 µM and > 4760 µM | TGI [3]: 4050 µM and > 6140 µM | GI50 [4]: 6030 µM and > 4760 µM | TGI [4]: > 10000 µM | GI50 [5]: 4650 µM and > 10000 µM | TGI [5]: > 10000 µM | GI50 [6]: 2420 µM | TGI [6]: 4390 µM | GI50 [7]: 2000 µM and 1870 µM | TGI [7]: 4070 µM and 3750 µM | GI50 [8]: 1650 µM and 1750 µM | TGI [8]: 3080 µM and 3400 µM | GI50 [9]: 2450 µM | TGI [9]: 5930 µM and > 6010 µM | GI50 [10]: 191 µM and 189 µM | TGI [10]: 408 µM and 412 µM
